The assay has as its target T1, GST-HS90A (Mus musculus, UniProt P07901).
T1 construct: gene Hsp90aa1; mouse Hsp90aa1 coding region in pGEX-4T-1, N-terminal GST fusion (tag kept), expressed in E. coli, purified, RED-NHS labelled
Nature of the assay: microscale thermophoresis, RED-NHS labelled protein. It is filed as binding. (In general: MST reads how a fluorescent partner responds to local heating, with and without ligand.)

Each structure is given as a SMILES string.

By Kd is commonly meant the equilibrium constant for the complex coming apart. A higher Kd goes with lower affinity. `[NH2][Pt]([NH2])([Cl])[Cl]` [cisplatin] had a Kd of 5.47 ± 0.2 µM.

The record behind these values is paper PMC8632880, “Mitochondrial proteome of mouse oocytes and cisplatin-induced shifts in protein profile” (Acta Pharmacologica Sinica, 2021).
